# Experimental data taken from patent publication US10568892B2, “Cycloartane tetracyclic triterpenoid compound, preparation method therefor and use thereof” (Hefei Cosource Pharmaceuticals Inc., priority 2016, dated 2020).
# Where two headings read alike, the source gives them in different places. Marks after values point to notes of the source that are not given here.
# How the values were obtained:
# [1] = system: ventricular papillary muscle cell of guinea pig; assay: Action potential of the ventricular papillary muscle cell of guinea pig (electrophysiological recording); type: cell-based; details: for percent change in action potential duration at 0.0005 µM / percent change in action potential duration at 0.005 µM / percent change in action potential duration at 0.05 µM: Cavia porcellus, 20 min, read-out: APD, Change rate (%); for APD50, Pre-administration / APD90, Pre-administration: baseline; for Effect on the APD value of the action potential of the papillary muscle (in words): Table 3 summary
# Experimental: Method: One guinea pig was taken to violently hit the back of the brain such that it fainted. The common carotid artery was cut off for bleeding to kill the guinea pig. The chest was incised to expose the heart, and the ventricle was cut open along the interventricular septum to expose the lumen of the left ventricle. The papillary muscles were quickly taken out and placed in a Kreb's solution saturated with O2 (mixed gas of 95% O2 and 5% CO2) at 0° C. After the microscopic dressing, the papillary muscle specimen was fixed with a stainless steel needle on the silicone rubber at the bottom of the perfusion bath, and perfused with the oxygen-saturated Kreb's solution. The relevant parameters for perfusion: the temperature was 37±0.5° C., and the flow rate was 4 mL/min.
# Cellular action potentials were recorded using a conventional electrophysiological method. The glass electrode filled with 3M KCl saturated solution and having a tip resistance of 15-30 MΩ was fixed on the microelectrode manipulator MP-2. The glass electrode was gently inserted into the superficial layer of the prepared papillary muscle specimen using a microelectrode pusher. The electrode was adjusted to provide the predetermined bioelectrical stimulation with the triple-channel SEN-7203 electronic stimulator and SS-202 J isolator. The bioelectrical signal was amplified by the MEZ-8301 amplifier and then input to the computerized electrophysiological recording and analysis system Powerlab 4/25. Subsequently, the relevant parameters of the action potential for the ventricular papillary muscle were analyzed through the analysis system. The relevant parameters for electrical stimulation: 30 ms latency, 7 ms wavewidth, 1 Hz frequency, 52.1 my stimulation intensity.
# In the compound screening test stage, after the ventricular papillary muscle specimen of the guinea pig was fixed, it was first perfused with a normal Kreb's solution for about 85 minutes for stabilization, and the relevant parameters of the cellular action potential before administration were recorded at about 80 min after the start of perfusion. The three-limb tube was used to convert the perfusates containing the title compounds. The title compounds were continuously perfused for about 25 min successively with low (0.0005 μM), medium (0.005 μM), and high (0.05 μM) concentrations, respectively. At about 20 min after the start of drug perfusions at different concentrations, the relevant parameters of the action potentials for the ventricular papillary muscle of guinea pig were observed and recorded, respectively. The normal Kreb's solution was used to perfuse and elute for about 25 min during the intervals between drug perfusions at different concentrations.
# The experiment was divided into the following five groups with 6 animals in each group: a vehicle control group, a 369 low dose (0.0005 μM) group, a 369 medium dose (0.005 μM) group, a 369 high dose (0.05 μM) group, and an amiodarone (10 μM) positive control group. After the ventricular papillary muscle specimen of the guinea pig was fixed, it was first perfused with a normal Kreb's solution for about 85 minutes for stabilization, and the relevant parameters of the cellular action potential before administration were recorded at about 80 min after the start of perfusion. According to groups, the three-limb tube was configured to convert the perfusates containing the vehicle, positive control, or Compound 369 at the corresponding concentrations to continuously perfuse for about 25 min. At about 20 min after the start of the perfusions, the relevant parameters of the action potentials for the ventricular papillary muscle of guinea pig were observed and recorded.
# [2] = Single-dose toxicity (MTD) in SD rats; type: in vivo; details: in vivo, SD rat, read-out: Maximum tolerance dose (MTD)
# Excerpt: The results of the experimental study on the toxicity of Compound 369 administrated through a single intravenous or intragastrical administration in SD rats and KM mice are shown in Table 9.
# [3] = Pharmacokinetics in Beagle canines; type: in vivo; details: dog, in vivo
# Experimental: Method: Six healthy male Beagle canines were selected and divided into two groups. 2 mg/kg of Compound 369 or cyclovirobuxine D was administrated intragastrically, respectively. Blood samples (about 2 mL) were collected from the limb venous of canines 0 h before administration as well as 0.25 h, 0.5 h, 1 h, 2 h, 4 h, 6 h, 8 h, and 12 h after administration. The concentrations of Compound 369 and cyclovirobuxine D in plasma samples were determined by LC-MS/MS, and the pharmacokinetic parameters were calculated by DAS.3.0 software.
smiles,measurement,setting,value
"CN[C@H]1CC[C@]23C[C@]24CC[C@]2(C)C(C(C)=O)=CC[C@@]2(C)[C@@H]4CC[C@H]3C1(C)C [Compound 369, (3β,5α)-4,4,14-trimethyl-3-(methylamino)-9,19-cyclopregnan-16-en-20-one]","Effect on APD, APD50 and APD90 (in words)","[1]; 0.0005 μM, 0.005 μM and 0.05 μM, concentration-dependent","can prolong APD, APD50 and APD90"
same,percent change in action potential duration at 0.0005 µM,"[1]; n = 6, x ± SD, 0.0005 μM",43.6%
same,percent change in action potential duration at 0.005 µM,"[1]; n = 6, x ± SD, 0.005 μM",43.5%
same,percent change in action potential duration at 0.05 µM,"[1]; n = 6, x ± SD, 0.05 μM",66.5%
same,percent change in action potential duration at 0.0005 µM,"[1]; screening stage, 0.0005 μM",26.8%
same,percent change in action potential duration at 0.005 µM,"[1]; screening stage, 0.005 μM",47.9%
same,percent change in action potential duration at 0.05 µM,"[1]; screening stage, 0.05 μM",65.7%
same,"APD50, Change rate (%)","[1]; n = 6, x ± SD, 0.0005 μM",49.41% ± 16.99%
same,"APD50, Post-administration","[1]; n = 6, x ± SD, 0.0005 μM",0.0572 ± 0.0247^a
same,"APD90, Change rate (%)","[1]; n = 6, x ± SD, 0.0005 μM",44.30% ± 17.58%^b
same,"APD90, Post-administration","[1]; n = 6, x ± SD, 0.0005 μM",0.0795 ± 0.0260^a
same,"APD, Post-administration","[1]; n = 6, x ± SD, 0.0005 μM",0.0930 ± 0.0246^a
same,"APD50, Pre-administration","[1]; n = 6, x ± SD, 0.0005 μM group",0.0365 ± 0.0183
same,"APD90, Pre-administration","[1]; n = 6, x ± SD, 0.0005 μM group",0.0537 ± 0.0235
same,"APD50, Change rate (%)","[1]; n = 6, x ± SD, 0.005 μM",47.25% ± 28.78%
same,"APD50, Post-administration","[1]; n = 6, x ± SD, 0.005 μM",0.0610 ± 0.0342^a
same,"APD90, Change rate (%)","[1]; n = 6, x ± SD, 0.005 μM",40.25% ± 24.21%^b
same,"APD90, Post-administration","[1]; n = 6, x ± SD, 0.005 μM",0.0838 ± 0.0345^a
same,"APD, Post-administration","[1]; n = 6, x ± SD, 0.005 μM",0.1023 ± 0.0365^a
same,"APD50, Pre-administration","[1]; n = 6, x ± SD, 0.005 μM group",0.0428 ± 0.0244
same,"APD90, Pre-administration","[1]; n = 6, x ± SD, 0.005 μM group",0.0604 ± 0.0243
same,"APD50, Change rate (%)","[1]; n = 6, x ± SD, 0.05 μM",101.63% ± 62.10%^b
same,"APD50, Post-administration","[1]; n = 6, x ± SD, 0.05 μM",0.0764 ± 0.0270^a
same,"APD90, Change rate (%)","[1]; n = 6, x ± SD, 0.05 μM",70.81% ± 46.76%^b
same,"APD90, Post-administration","[1]; n = 6, x ± SD, 0.05 μM",0.1006 ± 0.0242^a
same,"APD, Post-administration","[1]; n = 6, x ± SD, 0.05 μM",0.1199 ± 0.0235^a
same,"APD50, Pre-administration","[1]; n = 6, x ± SD, 0.05 μM group",0.0385 ± 0.0090
same,"APD90, Pre-administration","[1]; n = 6, x ± SD, 0.05 μM group",0.0603 ± 0.0103
same,Effect on the APD value of the action potential of the papillary muscle (in words),[1]; screening stage,the strongest effect
same,Effect on the APD value of the action potential of the papillary muscle (in words),"[1]; screening stage, listed as Example 1",a certain degree of prolonged effects
same,"APD, Post-administration","[1]; screening stage, 0.0005 μM, about 20 min perfusion",0.0912
same,"APD, Post-administration","[1]; screening stage, 0.005 μM, about 20 min perfusion",0.1031
same,"APD, Post-administration","[1]; screening stage, 0.05 μM, about 20 min perfusion",0.1168
same,MTD,"[2]; po, single intragastrical administration",1000 mg/kg
same,MTD,[2]; single intravenous injection,45 mg/kg
same,Exposures in plasma (AUC and Cmax values) vs cyclovirobuxine D (in words),[3],higher than that of cyclovirobuxine D
same,Half-life (T1/2) vs cyclovirobuxine D (in words),[3],shorter than that of cyclovirobuxine D
same,AUC(0-t),"[3]; male, Beagle, po, 2 mg/kg",505 ng·h/mL
same,Cmax,"[3]; male, Beagle, po, 2 mg/kg",43.4 ng/mL
same,Tmax,"[3]; male, Beagle, po, 2 mg/kg",2.67 h
same,half-life,"[3]; male, Beagle, po, 2 mg/kg",11.1 h
